TGI and GI50 data for ten compounds are collected here from PubChem BioAssay (NCI).

“And” between values parts separate entries of the source, which are not always exact repeats. Equal values may be shown once.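 Exposure lasted 48 hours, with cells grown in 96-well plates and compounds tested at five concentrations. GI50 = concentration required for 50% inhibition of growth. At the TGI there is no net growth.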

Experiment in all cases: NCI tumour cell line growth inhibition, 48 h
For assay [1], the system named is KM12 colon.
The test system of assay [2] is SK-MEL-2 melanoma.
The subject of assay [3] is SK-OV-3 ovarian.
Assay [4] concerns HT29 colon.
For assay [5], the system named is IGROV1 ovarian.
Assay [6] deals with TK-10 renal.
In assay [7] the test system is HOP-92 NSCLC.
For assay [8], the system named is M14 melanoma.
Assay [9] has as its system EKVX NSCLC.
For assay [10], the system named is SF-295 CNS.

Take `CC(C)=CCN1c2ccccc2NC(=O)CC1C` (centres undefined): the TGI in assay [1], in assay [2], in assay [3], in assay [4], in assay [5] and in assay [6] was over 100 µM each time. The TGI in assay [7], in assay [8], in assay [9] and in assay [10] was over 100 µM in each case.

In the case of `Cc1ccc(S(=O)(=O)SC/C=C\CSS(=O)(=O)c2ccc(C)cc2)cc1`, the TGI is > 100 µM and 30.4 µM in assay [1]; over 92.6 µM in assay [2]; 98.9 µM and 83.2 µM in assay [3]; > 62.8 µM and 39.7 µM in [4]; > 100 µM and 79.2 µM in assay [5]; > 100 µM and 45.5 µM in [6]. Also, the TGI in [7] is > 72.7 µM and 37.9 µM; in assay [8], 68.6 µM and 33.5 µM; in assay [9], over 100 µM; in assay [10], > 95.7 µM and 50.7 µM. Besides, the GI50 was 6.14 µM and 20.3 µM in assay [4]; 50 µM and 20.4 µM in assay [6].

With `CN(C)CCNC(=O)Cn1ccc(=O)c2cc([N+](=O)[O-])ccc21`, the TGI in [1], in assay [2], in assay [3], in assay [4], in assay [5] and in assay [6] was over 100 µM each time. Also, the TGI in [7], in assay [8], in assay [9] and in [10] was over 100 µM throughout.

For the compound `CC(=O)Nc1ccc(-c2cc(C(=O)O)c3cc4ccccc4cc3n2)cc1`, the TGI in [1], in assay [2], in [3], in assay [4], in assay [5] and in [6] was over 100 µM throughout. The TGI in assay [7], in assay [8], in assay [9] and in assay [10] was over 100 µM throughout.

In the case of `CC1CC(C)CC(C)C(O)/C(C#N)=C/C=C/CC(C2CCCC2C(=O)O)OC(=O)CC(O)C(C)C1` (centres undefined), the GI50 is 0.0473 µM and < 0.0158 µM in [1]; 0.00139 µM in [2]; 0.0369 µM in assay [3]; 0.0644 µM and 0.0286 µM in assay [4]; 0.0231 µM in assay [5]; 0.026 µM in assay [8]. The GI50 in assay [9] was 0.0518 µM. For the same compound, the TGI in assay [1] was 0.216 µM and 0.227 µM; in [2], 0.00545 µM; in assay [3], 0.217 µM and 0.0917 µM; in assay [4] it was 0.574 µM and 0.321 µM; in assay [5] it was 0.128 µM and 0.0412 µM; in assay [6], 0.089 µM and 0.432 µM. Moreover, the TGI is 0.0513 µM and 0.0143 µM in assay [7]; 0.0971 µM and 0.0576 µM in [8]; 0.384 µM and 0.465 µM in assay [9]; 0.203 µM and 0.222 µM in assay [10].

For the compound `CCCN1C(=O)NC(=O)C(CC)(N2C(=O)c3c(F)c(F)c(F)c(F)c3C2=O)C1=O` (centres undefined), the GI50 in [1] was 1.42 µM; in assay [2] it was 2.95 µM; in [3], 3.96 µM; in assay [4], 1.4 µM; in [5], 1.58 µM; in assay [6], 2.29 µM. Besides, the GI50 in assay [7] is 1.68 µM; in assay [8] it was 2.2 µM; in [9], 2.33 µM; in [10], 3.93 µM. Further, the TGI in assay [1] is 2.84 µM; in assay [2], 8.32 µM; in assay [3], 13.2 µM; in [4] it was 3.62 µM; in assay [5] it was 3.67 µM; in assay [6] it was 6 µM. Moreover, the TGI in assay [7] is 3.37 µM; in [8] it was 6.37 µM; in [9], 6.62 µM; in assay [10] it was 14.6 µM.

For `CC(=O)c1c(O)c(C)c(O)c(Cc2c(O)c3c(c(C(=O)/C=C/c4ccccc4)c2O)OC(C)(C)C=C3)c1O`, the TGI in [1] was 16.7 µM; in [2] it was 4.09 µM; in assay [3], 15.1 µM; in assay [4], 13.1 µM; in assay [5], 16.3 µM; in [6], over 100 µM. Also, the TGI in assay [7] was found to be 6.08 µM; in assay [8] it was 18.4 µM; in assay [9] it was 12.9 µM; in assay [10], 11.6 µM.

In the case of `O=S(=O)(Nc1ccc(Br)cc1)c1ccc(-c2cnc(C3CC3)o2)cc1`, the GI50 in [1] is 1.13 µM; in assay [2], 4.2 µM; in assay [3], 2.49 µM; in assay [4], 0.715 µM; in [5], 2.57 µM; in [6], 5.36 µM. Also, the GI50 is 3.39 µM in [7], 1.41 µM in assay [8], 3.39 µM in assay [9] and 1.13 µM in [10]. Besides, the TGI in assay [1] is 17.5 µM; in assay [2] it was 20.3 µM; in [3], 14.3 µM; in assay [4], 15.9 µM; in assay [5], 15.8 µM; in assay [6] it was 21.5 µM. For the same compound, the TGI in [7] is 18.6 µM; in assay [8], 16.1 µM; in assay [9], 17.5 µM; in assay [10], 11.8 µM.

`FC(F)(F)c1cccc(-c2nc3nc(Cl)c(Cl)nc3[nH]2)c1`: the TGI is 11 µM in assay [1]; 6.02 µM in assay [2]; over 90.1 µM in assay [3]; 9.2 µM in assay [4]; over 100 µM in assay [5]; over 76.1 µM in assay [6]. In addition, the TGI was 9.79 µM in assay [7], 30.8 µM in assay [8], 23.2 µM in assay [9] and over 100 µM in assay [10].

For the compound `Cc1ccc2cnc(N)c(C#Cc3cc(C(=O)Nc4ccc(CN5CCN(C)CC5)c(C(F)(F)F)c4)cnc3C)c2c1`, the GI50 was 0.005 µM in [1]; 0.761 µM in assay [2]; 1.61 µM in assay [3]; 0.139 µM in assay [4]; 0.128 µM in assay [5]; 0.731 µM in assay [6]. The GI50 in assay [7] is 0.217 µM; in assay [8] it was 0.334 µM; in [9] it was 0.679 µM; in assay [10], 0.771 µM. The TGI came to 1.02 µM in assay [1]; 1.73 µM in assay [2]; 4.19 µM in assay [3]; 0.776 µM in assay [4]; 0.712 µM in [5]; 1.48 µM in [6]. The TGI in assay [7] is 1.64 µM; in assay [8], 1.16 µM; in assay [9] it was 1.53 µM; in assay [10], 1.75 µM.
